Measured values from ChEMBL document CHEMBL1201862, “PubChem BioAssay data set” (2004).
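Five compound concentrations were applied to cells in 96-well plates for 48 hours; endpoints were derived by simple linear interpolation of the resulting dose-response curve. GI50 = concentration required for 50% inhibition of growth.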 Calls of active or inactive are those of the source. No stated cut-off is given here; in the data, active = GI50 up to about 1.1 µM and inactive = higher.

Tests used:
Assay in all cases: NCI anticancer screen, dose series, 48 h
K562 = test system: K562
OVCAR-4 = test system: OVCAR-4
EKVX = test system: EKVX
HOP-92 = test system: HOP-92
A549 = test system: A549
SNB-78 = test system: SNB-78
OVCAR-8 = test system: OVCAR-8
HL-60 = test system: HL-60
M14 = test system: M14
NCI-H522 = test system: NCI-H522
OVCAR-3 = test system: OVCAR-3
ACHN = test system: ACHN
CCRF-CEM = test system: CCRF-CEM
UACC-62 = test system: UACC-62
HCT-116 = test system: HCT-116
RPMI-8226 = test system: RPMI-8226

Measured: GI50

COc1ccc(-c2cc(C(=O)Nc3cccc(C(F)(F)F)c3)nc(S)n2)cc1
inactive: K562 > 100 µM | OVCAR-4 > 100 µM | EKVX > 100 µM | HOP-92 > 100 µM | A549 > 100 µM | SNB-78 > 100 µM | OVCAR-8 > 100 µM | HL-60 > 100 µM | M14 > 100 µM | NCI-H522 > 100 µM | OVCAR-3 > 100 µM | ACHN > 100 µM | CCRF-CEM > 100 µM | UACC-62 > 100 µM | HCT-116 > 100 µM | RPMI-8226 > 100 µM

O=C(O)c1cc2ccc(Cl)cc2c(O)c1C1=CCCCC1
inactive: K562 33.1 µM | OVCAR-4 23.2 µM | EKVX 43.4 µM | HOP-92 23.2 µM | A549 39.9 µM | SNB-78 27.4 µM | OVCAR-8 40.4 µM | HL-60 30.8 µM | M14 43.7 µM | NCI-H522 29 µM | OVCAR-3 33.5 µM | ACHN 65 µM | CCRF-CEM 41.7 µM | UACC-62 24.5 µM | HCT-116 37.1 µM | RPMI-8226 34.6 µM

N#CC(C#N)=Cc1ccc(C(O)P(=O)(O)O)cc1 (centres undefined)
inactive: K562 69.2 µM | OVCAR-4 > 100 µM | EKVX > 100 µM | HOP-92 39.6 µM | A549 > 100 µM | SNB-78 > 100 µM | OVCAR-8 > 100 µM | HL-60 93.5 µM | M14 > 100 µM | NCI-H522 56.6 µM | OVCAR-3 > 100 µM | ACHN > 100 µM | CCRF-CEM 71.8 µM | UACC-62 > 100 µM | HCT-116 > 100 µM | RPMI-8226 > 100 µM

COc1c2c(c3c(c1C1OC(C)[C@@H](C)O1)CC(C)(C)O3)C(=O)c1ccccc1C2=O (some centres undefined)
inactive: K562 25.4 µM | OVCAR-4 42 µM | EKVX > 100 µM | HOP-92 16.9 µM | A549 73.3 µM | SNB-78 > 100 µM | OVCAR-8 34.3 µM | HL-60 13.5 µM | M14 65 µM | NCI-H522 > 10 µM | OVCAR-3 38.2 µM | ACHN 40.5 µM | CCRF-CEM 20.8 µM | UACC-62 34.9 µM | HCT-116 42.7 µM | RPMI-8226 20.6 µM
